Reference: ChEMBL document CHEMBL1201862, “PubChem BioAssay data set” (2004)
Blank lines part the entries; values can stand above or below the molecule they belong to. The source made the active and inactive calls. Rule as the data show it, for most assays here: active = IC50 of 10 µM or less and inactive = more.

Experiments:
[1] = molecular target: Glycogen synthase kinase-3 alpha (Homo sapiens, UniProt P49840); assay: human GSK3 alpha kinase inhibition, dose response, selectivity assay for GSK3beta inhibitor project, biochemical, microfluidics, dry powder samples, set 2 (AID 623978); assay type: functional
[2] = molecular target: Glycogen synthase kinase-3 beta (Homo sapiens, UniProt P49841); assay: GSK3beta kinase inhibitors, dose response, biochemical, microfluidics, dry powder samples, set 2 (AID 623989); assay type: functional
[3] = molecular target: T1, DNA dC->dU-editing enzyme APOBEC-3G (Homo sapiens, UniProt Q9HC16); assay: SAR analysis of small molecule inhibitors of APOBEC3G DNA Deaminase via a fluorescence-based single-stranded DNA deaminase assay - Set 2.; assay type: functional; conditions: read-out: IC50_Mean
[4] = molecular target: T2, DNA dC->dU-editing enzyme APOBEC-3A (Homo sapiens, UniProt P31941); assay: SAR analysis of small molecule inhibitors of APOBEC3A DNA Deaminase via a fluorescence-based single-stranded DNA deaminase assay - Set 2.; assay type: functional; conditions: read-out: IC50_Mean
[5] = molecular target: T2, DNA dC->dU-editing enzyme APOBEC-3A; assay: SAR analysis of small molecule inhibitors of APOBEC3A DNA Deaminase via a fluorescence-based single-stranded DNA deaminase assay.; assay type: functional; conditions: read-out: IC50_Mean
[6] = molecular target: T1, DNA dC->dU-editing enzyme APOBEC-3G; assay: APOBEC3G deaminase inhibitors, SAR follow-up, biochemical, fluorescence, single-stranded DNA substrate (AID 602136); assay type: functional; conditions: read-out: IC50_Mean
[7] = molecular target: T3, Neuropeptides B/W receptor type 1 (Homo sapiens, UniProt P48145); assay: GPR7 antagonist potency, late-stage follow-up, cell-based, fluorescence, dose response, set 6 (AID 588583); assay type: functional
T3 sequence (P48145 whole entry): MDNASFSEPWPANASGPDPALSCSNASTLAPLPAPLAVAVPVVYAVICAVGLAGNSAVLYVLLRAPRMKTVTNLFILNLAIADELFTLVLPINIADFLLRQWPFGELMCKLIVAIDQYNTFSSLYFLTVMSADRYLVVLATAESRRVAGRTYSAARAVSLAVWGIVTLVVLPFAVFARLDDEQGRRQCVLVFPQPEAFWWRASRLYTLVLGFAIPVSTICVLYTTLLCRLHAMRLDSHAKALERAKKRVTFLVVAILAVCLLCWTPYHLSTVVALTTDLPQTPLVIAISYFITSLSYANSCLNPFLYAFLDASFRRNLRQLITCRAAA

[8] = molecular target: T4, Melanin-concentrating hormone receptor 1 (Homo sapiens, UniProt Q99705); assay: Late-stage fluorescence-based counterscreen for antagonists of the G-protein coupled receptor 7 (GPR7): cell-based dose response assay to identify antagonists of the melanin-concentrating hormone receptor 1 (MCHR1) Set 6.; assay type: functional
[9] = molecular target: T3, Neuropeptides B/W receptor type 1; assay: GPR7 antagonist potency, late-stage follow-up, cell-based, fluorescence, dose response, set 5 (AID 588566); assay type: functional
[10] = molecular target: T4, Melanin-concentrating hormone receptor 1; assay: Late-stage fluorescence-based counterscreen for antagonists of the G-protein coupled receptor 7 (GPR7): cell-based dose response assay to identify antagonists of the melanin-concentrating hormone receptor 1 (MCHR1) Set 5.; assay type: functional
[11] = molecular target: T5, Apoptotic protease-activating factor 1 (Homo sapiens, UniProt O14727); assay: SAR analysis of small molecule inhibitors of Apaf-1 in a Fluorescent assay.; assay type: functional; conditions: read-out: IC50_Mean
T5 sequence (O14727 whole entry): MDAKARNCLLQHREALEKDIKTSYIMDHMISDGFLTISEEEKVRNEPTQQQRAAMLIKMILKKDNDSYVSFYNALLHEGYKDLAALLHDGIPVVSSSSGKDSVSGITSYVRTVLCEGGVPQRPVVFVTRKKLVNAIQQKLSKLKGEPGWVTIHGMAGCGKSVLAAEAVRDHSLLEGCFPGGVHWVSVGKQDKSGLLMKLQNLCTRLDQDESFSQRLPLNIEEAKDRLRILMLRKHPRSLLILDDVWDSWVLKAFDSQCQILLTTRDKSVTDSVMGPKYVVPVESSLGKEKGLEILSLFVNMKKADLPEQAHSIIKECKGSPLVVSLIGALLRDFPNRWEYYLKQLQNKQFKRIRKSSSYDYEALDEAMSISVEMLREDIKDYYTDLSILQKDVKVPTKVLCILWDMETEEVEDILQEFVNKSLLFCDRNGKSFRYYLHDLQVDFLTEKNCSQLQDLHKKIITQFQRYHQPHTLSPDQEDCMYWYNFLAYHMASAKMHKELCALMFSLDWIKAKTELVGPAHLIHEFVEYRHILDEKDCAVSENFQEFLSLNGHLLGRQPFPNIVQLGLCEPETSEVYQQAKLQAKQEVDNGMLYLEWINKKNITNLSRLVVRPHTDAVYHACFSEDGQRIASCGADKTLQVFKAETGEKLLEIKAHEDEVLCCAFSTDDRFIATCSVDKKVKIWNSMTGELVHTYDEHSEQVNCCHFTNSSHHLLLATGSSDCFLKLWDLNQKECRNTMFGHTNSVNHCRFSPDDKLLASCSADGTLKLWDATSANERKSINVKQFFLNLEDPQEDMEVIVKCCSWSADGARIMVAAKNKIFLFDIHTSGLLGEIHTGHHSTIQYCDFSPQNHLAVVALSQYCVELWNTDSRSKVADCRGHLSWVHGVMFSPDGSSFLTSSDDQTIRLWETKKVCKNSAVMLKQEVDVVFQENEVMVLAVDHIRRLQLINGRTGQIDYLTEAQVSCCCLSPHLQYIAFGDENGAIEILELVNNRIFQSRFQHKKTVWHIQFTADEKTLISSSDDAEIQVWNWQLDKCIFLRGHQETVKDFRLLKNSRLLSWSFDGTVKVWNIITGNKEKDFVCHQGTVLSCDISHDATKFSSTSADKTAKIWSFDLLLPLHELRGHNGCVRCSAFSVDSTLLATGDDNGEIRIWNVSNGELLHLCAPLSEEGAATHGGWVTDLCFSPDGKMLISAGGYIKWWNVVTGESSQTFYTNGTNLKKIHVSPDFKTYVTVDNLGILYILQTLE

T2 sequence (P31941 whole entry): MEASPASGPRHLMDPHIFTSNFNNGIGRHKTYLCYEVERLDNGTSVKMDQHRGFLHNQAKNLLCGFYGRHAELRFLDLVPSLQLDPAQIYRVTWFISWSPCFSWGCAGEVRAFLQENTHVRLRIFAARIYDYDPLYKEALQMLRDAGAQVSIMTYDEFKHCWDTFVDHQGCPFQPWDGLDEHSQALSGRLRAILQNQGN
T4 sequence (Q99705 whole entry): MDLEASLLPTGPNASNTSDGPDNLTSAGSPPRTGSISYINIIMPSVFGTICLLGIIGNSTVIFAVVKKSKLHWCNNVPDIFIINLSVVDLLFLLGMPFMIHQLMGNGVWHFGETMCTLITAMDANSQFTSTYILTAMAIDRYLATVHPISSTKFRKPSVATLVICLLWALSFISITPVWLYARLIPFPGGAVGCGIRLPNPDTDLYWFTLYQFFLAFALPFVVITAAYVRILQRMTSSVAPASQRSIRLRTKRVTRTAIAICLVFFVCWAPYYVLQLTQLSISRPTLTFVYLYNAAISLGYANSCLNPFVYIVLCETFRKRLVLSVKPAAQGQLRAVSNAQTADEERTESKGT
T1 sequence (Q9HC16 whole entry): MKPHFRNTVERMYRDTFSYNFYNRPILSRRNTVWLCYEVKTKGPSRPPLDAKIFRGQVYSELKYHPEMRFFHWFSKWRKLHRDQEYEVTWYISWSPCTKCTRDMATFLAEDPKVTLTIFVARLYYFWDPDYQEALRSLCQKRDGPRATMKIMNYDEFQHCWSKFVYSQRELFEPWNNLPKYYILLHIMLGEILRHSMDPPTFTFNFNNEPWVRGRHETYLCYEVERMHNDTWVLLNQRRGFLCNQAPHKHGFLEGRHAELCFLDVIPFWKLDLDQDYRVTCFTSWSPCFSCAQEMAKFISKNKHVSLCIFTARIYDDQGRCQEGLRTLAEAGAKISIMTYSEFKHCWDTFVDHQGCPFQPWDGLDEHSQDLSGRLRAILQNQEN
Chain of Glycogen synthase kinase-3 beta (P49841 whole entry): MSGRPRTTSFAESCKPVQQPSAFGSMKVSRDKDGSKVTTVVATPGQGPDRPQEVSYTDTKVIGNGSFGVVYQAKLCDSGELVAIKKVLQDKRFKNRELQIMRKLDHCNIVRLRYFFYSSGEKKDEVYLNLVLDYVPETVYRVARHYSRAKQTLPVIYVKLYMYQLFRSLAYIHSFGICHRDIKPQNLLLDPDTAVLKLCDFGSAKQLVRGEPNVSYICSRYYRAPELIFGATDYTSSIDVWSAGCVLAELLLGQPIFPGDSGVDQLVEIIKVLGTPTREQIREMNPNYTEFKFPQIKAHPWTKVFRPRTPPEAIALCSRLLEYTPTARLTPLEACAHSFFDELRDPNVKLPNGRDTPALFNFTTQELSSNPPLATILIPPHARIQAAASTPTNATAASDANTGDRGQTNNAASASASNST
Chain of Glycogen synthase kinase-3 alpha (P49840 whole entry): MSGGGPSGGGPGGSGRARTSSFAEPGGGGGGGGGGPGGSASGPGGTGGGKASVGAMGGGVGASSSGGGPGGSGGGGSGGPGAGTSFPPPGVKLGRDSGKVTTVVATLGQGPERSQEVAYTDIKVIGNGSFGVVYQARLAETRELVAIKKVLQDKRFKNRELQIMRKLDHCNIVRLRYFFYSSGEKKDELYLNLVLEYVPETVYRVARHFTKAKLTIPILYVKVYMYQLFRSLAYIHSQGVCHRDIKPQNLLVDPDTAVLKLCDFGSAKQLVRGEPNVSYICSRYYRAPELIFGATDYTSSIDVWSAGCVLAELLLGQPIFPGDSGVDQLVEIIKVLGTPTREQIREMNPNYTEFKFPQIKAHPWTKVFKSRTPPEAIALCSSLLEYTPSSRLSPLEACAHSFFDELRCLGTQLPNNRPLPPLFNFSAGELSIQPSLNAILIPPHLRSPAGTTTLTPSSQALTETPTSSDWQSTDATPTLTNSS

- IC50 [7]: 0.542 µM (active)
- IC50 [8]: 0.542 µM (active)
Compound: N#CC(c1cccc(F)c1F)c1c(Cl)cnn(Cc2cccc3ccccc23)c1=O (configuration not stated)

- IC50 [9]: 1.21 µM (active)
- IC50 [10]: 16.5 µM (inactive)
Compound: COc1ccc(Oc2c(Cl)cnn(Cc3ccccc3OCc3ccccc3)c2=O)cc1

Further lines, the molecule ahead of its results:

Compound: Fc1cccc(Nc2nc(-c3ccncc3)nc3ccccc23)c1
- AC50 [1]: 29.7 µM (active)
- IC50 (cells): 44.3 µM (active)
- AC50 [2]: 0.894 µM (active)

Compound: CC1(C)Oc2ccc3ccc(=O)oc3c2C(C=NCCO)=C1O
- IC50 [3]: 2.34 µM (active)
- IC50 [4]: 50.4 µM (inactive)
- IC50 [5]: 28.8 µM (inactive)
- IC50 [6]: 12.3 µM (inactive)

Compound: Cc1ccc2c(c1)C(=O)c1nc3ccccc3c(=O)n1-2
- IC50 [11]: > 100 µM (inactive)
